One test addresses T1, M1 muscarinic receptor (Homo sapiens, UniProt P11229).
T1 construct: expressed in transfected cells; host or cells: CHO (M1-CHO)
T1 sequence (P11229 1-460): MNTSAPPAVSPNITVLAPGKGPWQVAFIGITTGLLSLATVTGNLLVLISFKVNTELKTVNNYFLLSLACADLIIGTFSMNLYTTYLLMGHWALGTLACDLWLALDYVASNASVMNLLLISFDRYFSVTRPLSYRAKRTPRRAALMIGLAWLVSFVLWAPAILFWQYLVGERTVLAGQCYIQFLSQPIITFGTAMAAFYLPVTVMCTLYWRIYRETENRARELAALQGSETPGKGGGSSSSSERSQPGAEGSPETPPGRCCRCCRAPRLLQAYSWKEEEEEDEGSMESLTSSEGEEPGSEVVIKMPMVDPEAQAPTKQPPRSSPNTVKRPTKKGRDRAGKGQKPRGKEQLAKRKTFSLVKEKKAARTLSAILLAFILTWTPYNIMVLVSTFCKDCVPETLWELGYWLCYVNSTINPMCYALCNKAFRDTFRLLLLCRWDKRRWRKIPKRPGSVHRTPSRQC
Nature of the test: Functional mobilization of intracellular calcium (FLIPR), M1-CHO cells. The class given is cell-based. As to conditions: for Emax: 100% efficacy is the maximum response obtained using Carbachol as a control; for M1 Activity: M1-CHO cells, FLIPR calcium mobilization. The method, then:
(§1) Functional Mobilization of Intracellular Calcium to Determine Muscarinic Receptor Activity:
(§2) CHO cells expressing muscarinic receptors (M1 to M5) are grown as monolayers in tissue culture flasks at 37° C. in a humidified atmosphere containing 5% CO2 and passaged every 3-5 days. The growth media is Dulbecco's modified eagles medium (DMEM, Gibco Cat# 12430-054), containing 25 mM Hepes and supplemented with Fetal Bovine Serum (Hyclone, cat# SH30071.03), 0.1 mM of MEM non-essential amino acids (GIBCO, Cat# 11140-050), 1 mM MEM Sodium Pyruvate (GIBCO Cat# 11360-070) and 100 units/ml of Penicillin G and 100 μg/ml of Streptomycin (GIBCO Cat# 15140-122). The recombinant muscarinic receptor cell lines are grown under antibiotic pressure with media containing 25 μg/ml zeocin and 500 μg/ml G418 (M1-CHO), 4 μg/ml puromycin, 50 μg/ml zeocin and 2.5 μg/ml blasticidin (M2 and M4-CHO) or 50 μg/ml zeocin and 4 μg/ml puromycin (M3 and M5-CHO).
(§3) Cells are harvested at 80-90% confluence using Versene (GIBCO Cat# 15040-066), collected by centrifugation and seeded 18-24 hrs prior to running the calcium assay at a density of 5,000-10,000 cells/well in […], clear-bottomed 384-well plates (BD Biocoat, poly-D-lysine, Cat#356663). The day of the experiment, the cells are washed with a plate washer (Bioteck Instruments, ELX 405) using bath1 buffer (140-mM NaCl, 4.5-mM KCl, 2-mM CaCl2, 1-mM MgCl2, 10-mM Hepes-Na, 10-mM Glucose, pH 7.4, with NaOH) containing 1 mM Probenecid. Next, the calcium dye Fluo-3 (25 μl/well of Fluo-3 AM at 4 μM, Molecular Probes F-1241, in Bath 1 buffer containing 1 mM Probenecid) is added to the 25 μl of Bath 1 remaining in each well after the plate wash and the dye is loaded at 37° C. in the tissue culture incubator for 60-90 min. The fluorescent dye is removed using the plate washer with Bath 1 containing 1 mM Probenecid, leaving 25 μl/well of this solution after the wash. Alternatively, cells can be loaded with the calcium indicator from Molecular Devices (Calcium 3 Assay Reagents, Cat # R7181) adding 5 μl of a 5× solution dye in Bath 1 containing 1 mM Probenecid (10 ml per dye flask cat# R7182 to generate a solution 20×) to 20 μl of the same buffer. After loading for 60 min, the experiment can be run without having to remove the dye.
(§4) Compounds are prepared at a 2× fold concentration in a 96-well plate (round bottom, Costar Corning cat# 3656), by reconstituting the pre-spotted compounds in bath 1 containing 1 mM probenecid. The final concentration DMSO is 0.5%, and the amount of DMSO is normalized across the assay plate. To determine an agonist action of the compounds on muscarinic receptors, the reconstituted compounds are added (25 μl compound/well) to the cell assay plate (containing 25 μl/well) using the multi-channel robotic system of the FLIPR 3 Instrument (Molecular Devices, Sunnyvale, Calif.). To determine a functional inhibitory action of the compounds on muscarinic receptors, the reconstituted compounds are added (25 μl compound/well) to the assay plate and pre-incubated for 15 min prior to adding 25 μl of Carbachol at 3× the EC80 for each muscarinic subtype. Alternatively, the compounds can be co-applied simultaneously with the agonist. In both assay modes, the fluorescence is recorded for 60 sec (excitation wavelength is […] and emission wavelength 540 nm) using the FLIPR 3 instrument.
(§5) The potency, efficacy and selectivity of the muscarinic compounds were evaluated by screening the compound activity across the whole family (M1 to M5 cells). Compounds were also screened for activity on other proteins such as other GPCRs and ion channels to determine selectivity on M4 receptors.

In the next test the target is T2, M4 muscarinic receptor (Homo sapiens, UniProt P08173).
T2 construct: expressed in transfected cells; host or cells: CHO (M4-CHO)
T2 sequence (P08173 1-479): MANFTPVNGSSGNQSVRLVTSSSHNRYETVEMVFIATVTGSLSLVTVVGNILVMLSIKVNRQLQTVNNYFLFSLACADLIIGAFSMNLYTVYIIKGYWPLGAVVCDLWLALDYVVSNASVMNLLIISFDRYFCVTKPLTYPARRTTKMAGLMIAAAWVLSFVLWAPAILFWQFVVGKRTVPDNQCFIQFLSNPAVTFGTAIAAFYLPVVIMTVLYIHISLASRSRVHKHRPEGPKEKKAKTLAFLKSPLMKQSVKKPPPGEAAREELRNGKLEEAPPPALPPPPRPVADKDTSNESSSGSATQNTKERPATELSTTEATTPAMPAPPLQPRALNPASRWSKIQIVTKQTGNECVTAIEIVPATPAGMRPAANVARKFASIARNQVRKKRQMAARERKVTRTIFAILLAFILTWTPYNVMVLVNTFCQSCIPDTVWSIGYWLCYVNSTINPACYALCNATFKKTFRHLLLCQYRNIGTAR
As to the kind of experiment: Functional mobilization of intracellular calcium (FLIPR), M4-CHO cells. As to conditions: for Emax: 100% efficacy is the maximum response obtained using Carbachol as a control; for M4 Activity: M4-CHO cells, FLIPR calcium mobilization. The class given is cell-based. Here is the method:
as §1, §2, §3, §4, §5
Background: Calcium assays in cells follow changes in intracellular calcium, usually with a dye or a luminescent sensor.

Usually Emax stands for the size of the effect at its maximum, as opposed to the concentration needed. Turning to `CCOC(=O)N1C2CCC1CC(N1CCC3(CC1)CN(S(=O)(=O)c1ccc(C)cc1)Cc1ccccc13)C2` (centres unmarked) [compound 18], on M1 muscarinic receptor, the Emax lay in the range of 25 to 100% and the “M1 Activity” value is on record as “+++ (activity was measured to be less than 1.0 μM)”. At M4 muscarinic receptor, the maximal effect (Emax) was in the range of 25 to 100% and the “M4 Activity” value is listed as “+++ (activity was measured to be less than 1.0 μM)”.

Turning to `O=C1OC2(CCN(C[C@H]3C[C@H]4C=C[C@H]3C4)CC2)c2ccc(Cl)cc21` [compound 19], at M1 muscarinic receptor, the maximum response (Emax) was in the range of 25 to 100% and the “M1 Activity” value is reported as “++ (activity was measured to be from 1.0 μM to 5.0 μM)”. Further, at M4 muscarinic receptor, the Emax was under 25% and the “M4 Activity” value is listed as “++ (activity was measured to be from 1.0 μM to 5.0 μM)”.

For the molecule `CCOC(=O)N1CCC(N2CCC3(CC2)c2ccccc2C(=O)N3Cc2ccccc2)CC1` [compound 20, ethyl 4-(2-benzyl-3-oxospiro[isoindoline-1,4′-piperidine]-1′-yl)piperidine-1-carboxylate], on M1 muscarinic receptor, the maximal response (Emax) was 25 to 100% and the “M1 Activity” value was “++ (activity was measured to be from 1.0 μM to 5.0 μM)”. On M4 muscarinic receptor, the Emax was under 25% and the “M4 Activity” value is “+ (activity was measured to be greater than 5.0 μM)”.

Regarding `CC(=O)N1Cc2ccccc2C2(CCN(C3CC4CCC(C4)C3)CC2)C1` (centres unmarked) [compound 21], at M1 muscarinic receptor, the Emax was 25 to 100% and the “M1 Activity” value was “+ (activity was measured to be greater than 5.0 μM)”. On M4 muscarinic receptor, the Emax was in the range of 25 to 100% and the “M4 Activity” value was “+ (activity was measured to be greater than 5.0 μM)”.

As for `CCOC(=O)N1CCC(CN2CCC3(CC2)CN(C(=O)OCCOC)Cc2ccccc23)CC1` [compound 22], at M1 muscarinic receptor, the maximum response (Emax) was 25 to 100% and the “M1 Activity” value is given as “+++ (activity was measured to be less than 1.0 μM)”. Further, on M4 muscarinic receptor, the maximum response (Emax) fell in the range of 25 to 100% and the “M4 Activity” value was “+++ (activity was measured to be less than 1.0 μM)”.

Regarding `CCOC(=O)N1CCC(N2CCC3(CC2)CN(C(=O)OCCOC)Cc2ccccc23)CC1` [compound 23], at M1 muscarinic receptor, the Emax fell in the range of 25 to 100% and the “M1 Activity” value is “+++ (activity was measured to be less than 1.0 μM)”. Also, on M4 muscarinic receptor, the Emax lay in the range of 25 to 100% and the “M4 Activity” value is “+++ (activity was measured to be less than 1.0 μM)”.

For the molecule `CCCS(=O)(=O)N1Cc2ccccc2C2(CCN(C3CC4CCC(C3)N4C(=O)O[C@@H]3CCOC3)CC2)C1` (some centres unmarked) [compound 24], at M1 muscarinic receptor, the maximum response (Emax) fell in the range of 25 to 100% and the “M1 Activity” value is “+++ (activity was measured to be less than 1.0 μM)”. Further, at M4 muscarinic receptor, the Emax was 25 to 100% and the “M4 Activity” value is listed as “+++ (activity was measured to be less than 1.0 μM)”.

`CCOC(=O)N1CCC(N2CCC3(CC2)CN(S(=O)(=O)c2c(C)noc2C)Cc2ccccc23)CC1` [compound 25]: at M1 muscarinic receptor, the maximum response (Emax) lay in the range of 25 to 100% and the “M1 Activity” value is given as “+++ (activity was measured to be less than 1.0 μM)”. For the same molecule, on M4 muscarinic receptor, the maximum response (Emax) was in the range of 25 to 100% and the “M4 Activity” value is reported as “+++ (activity was measured to be less than 1.0 μM)”.

Regarding `CCOC(=O)N1C2CCC1CC(N1CCC3(CC1)CN(C(=O)OC1CCC1)Cc1ccccc13)C2` (centres unmarked) [compound 27], at M1 muscarinic receptor, the Emax was 25 to 100% and the “M1 Activity” value is recorded as “+++ (activity was measured to be less than 1.0 μM)”. Besides, on M4 muscarinic receptor, the Emax was 25 to 100% and the “M4 Activity” value is “+++ (activity was measured to be less than 1.0 μM)”.

With `CC(=O)N1Cc2ccccc2C2(CCN(C3CCN(C(=O)O[C@@H]4CCOC4)CC3)CC2)C1` [compound 32], on M1 muscarinic receptor, the maximum response (Emax) is 25 to 100% and the “M1 Activity” value is reported as “+++ (activity was measured to be less than 1.0 μM)”. In addition, at M4 muscarinic receptor, the Emax lay in the range of 25 to 100% and the “M4 Activity” value was “+++ (activity was measured to be less than 1.0 μM)”.

For the molecule `CC(=O)N1Cc2ccccc2C2(CCN(CC3CCCCC3)CC2)C1` [compound 35], at M1 muscarinic receptor, the Emax is under 25% and the “M1 Activity” value is “+ (activity was measured to be greater than 5.0 μM)”. For the same molecule, on M4 muscarinic receptor, the Emax is under 25% and the “M4 Activity” value was “++ (activity was measured to be from 1.0 μM to 5.0 μM)”.

For the molecule `COc1ccc(CN2CCC3(CC2)CN(C(C)=O)Cc2ccccc23)cn1` [compound 37], on M1 muscarinic receptor, the maximum response (Emax) lay within 25 to 100% and the “M1 Activity” value is given as “+ (activity was measured to be greater than 5.0 μM)”. Also, at M4 muscarinic receptor, the maximum response (Emax) was under 25% and the “M4 Activity” value is “+ (activity was measured to be greater than 5.0 μM)”.

As for `CC(=O)N1Cc2ccccc2C2(CCN(Cc3ccccn3)CC2)C1` [compound 40], on M1 muscarinic receptor, the maximal effect (Emax) was under 25% and the “M1 Activity” value is “+ (activity was measured to be greater than 5.0 μM)”. On M4 muscarinic receptor, the Emax was under 25% and the “M4 Activity” value is reported as “+ (activity was measured to be greater than 5.0 μM)”.

On to `Cc1ccc2c(c1)C1(CCN(CC3CCOCC3)CC1)OC2=O` [compound 41], for which, on M1 muscarinic receptor, the Emax was 25 to 100% and the “M1 Activity” value was “+ (activity was measured to be greater than 5.0 μM)”. On M4 muscarinic receptor, the maximal response (Emax) was under 25% and the “M4 Activity” value is “+ (activity was measured to be greater than 5.0 μM)”.

As for `O=C(c1ccccc1)N1CCC(N2CCC3(CC2)c2ccccc2C(=O)N3Cc2ccccc2)CC1` [compound 42], at M1 muscarinic receptor, the Emax is under 25% and the “M1 Activity” value is recorded as “+ (activity was measured to be greater than 5.0 μM)”. Further, at M4 muscarinic receptor, the Emax was under 25% and the “M4 Activity” value is reported as “+ (activity was measured to be greater than 5.0 μM)”.

Consider `CC(=O)N1Cc2ccccc2C2(CCN(CC3CCN(C(=O)O[C@@H]4CCOC4)CC3)CC2)C1` [compound 45], for which, at M1 muscarinic receptor, the maximum response (Emax) was under 25% and the “M1 Activity” value is on record as “+ (activity was measured to be greater than 5.0 μM)”. In addition, at M4 muscarinic receptor, the Emax was under 25% and the “M4 Activity” value is on record as “+ (activity was measured to be greater than 5.0 μM)”.

For the molecule `CCOC(=O)N1CCC(N2CCC3(CC2)CN(C(=O)c2ccno2)Cc2ccccc23)CC1` [compound 46], on M1 muscarinic receptor, the maximal response (Emax) fell in the range of 25 to 100% and the “M1 Activity” value was “+++ (activity was measured to be less than 1.0 μM)”. Besides, on M4 muscarinic receptor, the maximal response (Emax) was 25 to 100% and the “M4 Activity” value is on record as “+++ (activity was measured to be less than 1.0 μM)”.

Values taken from US7863449B2, “Modulators of muscarinic receptors” (Vertex Pharmaceuticals Incorporated, priority 2004, dated 2011).
